According to patent US20260258502A1, “METHODS AND REAGENTS FOR DETECTION OF CIRCULAR DNA MOLECULES IN BIOLOGICAL SAMPLES” (priority 2022, published 2026):

System: Human TK6 cells
Assay: Duplex sequencing (DS) of human TK6 cells treated with genotoxic compounds: putative DNA circle frequency and mutation frequency
Format: cell-based
Settings: detected by DS, dose groups vs untreated group, proxy for clastogenicity
Procedure: To assess whether DNA circle frequency is a proxy for clastogenicity, DS data for various genotoxic agents were re-analyzed. ENU is a well-known potent mutagen and clastogen.
Human TK6 cells were treated with different potentially genotoxic compounds. DS libraries were prepared with 500 ng of DNA input. […] FIG. 10A-10B show the frequency of putative circles, calculated as frequency=(#circles detected)/(#duplex bases sequenced).

Q: For CCN(N=O)C(N)=O [ENU], which “frequency of putative DNA circles per duplex base pair (#circles detected)/(#duplex bases sequenced)” value is on record?
A: increased candidate DNA circle frequency in a dose-dependent manner, reaching statistical significance in the highest dose group
